Where “and” joins values, the source holds several entries; their conditions need not be identical. Equal values may be shown once. Non-standard residues stand in square brackets, D forms with d. Residues, ends and D or L forms follow the SMILES beside them. No end group written: not given here.
Assays:
[1] = system: occlusive thrombus in apoE KO mice; test: acute thrombosis model, ligation of the left common carotid artery in atherosclerotic apoE KO mice; type: in vivo
Experimental: Atherosclerotic mice were treated with P8F at 2.5, 5 or 10 mg/kg/day, with aspirin as a positive control and vehicle as a negative control.
The width of the columns is proportional to the number of mice included in each group (Aspirin=5, “2.5”=7, “5”=11, “10”=7, Vehicle=8). P<0.05 for all groups vs vehicle (Veh).
The P8F sequence was also used in vivo (subcutaneous administration of different doses: 2.5, 5 and 10 mg/kg/d) in atherosclerotic mice (apoE KO, 35 weeks of age, male, chow diet) subjected to the ligation of the left common carotid artery (a model of acute thrombosis). Due to advanced age, most of the mice had already developed an atherosclerotic lesion close to the site where the ligation was performed.

[2] = solubility comparison of peptides; type: physicochemical; conditions: for maximum soubility: in the minimal solvent
From the text: (§1) The solubility, activity and stability (resistance to freezing/thawing) of the P8F and P8RI peptides were compared to previously used peptides comprising the membrane-proximal sequences of CD31.

[3] = system: human platelet aggregation; test: platelet aggregation on collagen-coated microcapillaries under flow (whole blood perfusion); type: cell-based; conditions: soluble peptide, 1500 seconds^−1, first 5 minutes
Experimental: The microcapillaries of Vena8 Fluoro+™ biochip (400 μm width×100 μm depth×20 mm length, Cellix) were coated with 2.5 mg/ml insoluble horse type I collagen overnight at 4° C. and then blocked with 0.1% HSA for 1 hour at room temperature. Human peripheral whole blood, anticoagulated with P-PACK (a direct thrombin inhibitor, non-chelating agent) was labeled with 5 μM DiOC6 for 10 minutes before perfusion with the Cellix pump at 1500 seconds^−1 through the coated capillaries. The interaction of platelets with the matrix was viewed in real time under a fluorescence microscope and was saved for off-line analysis. The surface covered by aggregated platelets was analyzed frame by frame (24 frames/s) over the first 5 minutes and expressed as coverage %.

Jurkat T cells = test: calcium mobilization test using Jurkat T cells after TCR stimulation; type: cell-based
Experimental: Jurkat T cells were preincubated with the fluo 3-AM calcium probe and stimulated by cross-linking the TCR with anti-CD3 antibodies and secondary antibody F(ab′)2 fragments.
Jurkat T cells (10×10^6/ml) were preincubated with the fluo 3-AM calcium probe and stimulated by cross-linking the TCR with anti-CD3 antibodies and secondary antibody F(ab′)2 fragments.
Activity was determined using the calcium mobilization test using Jurkat T cells, as described above.

[4] = stability, resistance to repeated freeze-thaw cycles (loss of activity); type: physicochemical; conditions: number of cycles after which activity was diminished or abolished
Experimental: as §1
Stability was determined by subjecting the peptides to repeated freeze-thaw cycles and determining the number of cycles after which ED 50 was increased and/or biological activity abolished.

Row | minimal solvent [2] | maximum soubility [2] | solubility in water [2] | Molecule | also measured
1 |  |  |  | CC(=O)Oc1ccccc1C(=O)O [aspirin, reference compound] | occlusive thrombus found ([1]; aspirin s.c. 150 mg/kg/d): No occlusive thrombus
2 | 10% Acetonitrile, and 5% acetic acid | 8.1 mg/mL |  | VRVFLAPWKK [PepReg, reference compound] | 
3 | 10% Acetonitrile, and 5% acetic acid | 15.9 mg/mL |  | SMRTSPRSSTLAVRVFLAPWKK [P22 mouse, reference compound] | 
4 | water | 28.1 mg/mL | soluble in water | H-RVFLAPWK-OH [P8F] | human platelet aggregation (surface coverage %) [3]: inhibit human platelet aggregation in a dose dependent manner; intracellular calcium mobilization (median fluorescence intensity of fluo-3AM probe) (Jurkat T cells; 60 μg/ml peptide, Jurkat cells, TCR stimulation with anti-CD3 + F(ab')2): delayed and reduced; EC50 (Jurkat T cells; Jurkat cells stimulated with antiCD3+Fab antibodies, read-out: ED 50 (minimal dose producing 50 percent of the maximum obtainable inhibition of intracellular calcium mobilization)): 25 µM; maximum freeze/thaw cycles [4]: 3 cycles; antithrombotic effect relative to reference drug ([1]; 5 mg/Kg/d s.c., vs aspirin 150 mg/kg/d s.c.): same extent of antithrombotic effect as the reference drug; occlusive thrombus found ([1]; 5 mg/ml group (so in the source)): No occlusive thrombus; number of sections showing an occlusive thrombus, out of 1000 sections/sample ([1]; P8F-treated mice vs vehicle): significantly lowered; appearance of an occlusive thrombus ([1]; s.c. 2.5, 5 and 10 mg/kg/d, all tested doses): effective in preventing the appearance of an occlusive thrombus
5 | water | 30.5 mg/mL | soluble in water | CC(C)C[C@@H](NC(=O)[C@@H](C)NC(=O)[C@H]1CCCN1C(=O)[C@@H](Cc1c[nH]c2ccccc12)NC(=O)[C@H](N)CCCCN)C(=O)N[C@H](Cc1ccccc1)C(=O)N[C@@H](C(=O)N[C@H](CCCNC(=N)N)C(=O)O)C(C)C [P8RI, H-kwpalfvr-OH] (H-[dK][dW][dP][dA][dL][dF][dV][dR]-OH) | 
